Values quoted from earlier work, collected in patent US20220160890A1, “SURVIVAL-TARGETING CHIMERIC (SURTAC) MOLECULES” (Locki Therapeutics Limited, priority 2019, published 2022).

Columns and labels:
p53 [1] = target: T1, p53 (Homo sapiens, UniProt P04637)
T1 construct: various tumor cells lines expressing wild-type p53

p53 [2] = target: T1, p53; remark: listed apart in the source
p53-HDM-2 interaction = p53-HDM-2 interaction (Homo sapiens, UniProt P04637); conditions: in vitro and in vivo
[3] = system: tumor cells lines expressing wild-type p53; conditions: tumor cell lines expressing wild-type p53

T1 sequence (P04637 whole entry): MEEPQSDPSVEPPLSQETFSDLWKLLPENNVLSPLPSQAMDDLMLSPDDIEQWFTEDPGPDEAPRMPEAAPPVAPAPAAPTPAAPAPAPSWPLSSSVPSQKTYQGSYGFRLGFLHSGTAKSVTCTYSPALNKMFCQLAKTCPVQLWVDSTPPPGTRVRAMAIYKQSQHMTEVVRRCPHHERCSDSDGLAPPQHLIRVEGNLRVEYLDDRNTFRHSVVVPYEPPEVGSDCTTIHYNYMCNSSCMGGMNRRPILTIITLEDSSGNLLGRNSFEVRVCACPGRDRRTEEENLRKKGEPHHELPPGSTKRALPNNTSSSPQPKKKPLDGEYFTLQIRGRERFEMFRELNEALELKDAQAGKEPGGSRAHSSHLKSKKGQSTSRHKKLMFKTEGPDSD
Sequence of p53-HDM-2 interaction (P04637 whole entry): as above

OCc1ccc(-c2ccc(-c3ccc(CO)s3)o2)s1 [RITA, 2,5-bis(5-hydroxymethyl-2-thienyl)furan]
binding to p53 (p53 [1]): binds to p53
accumulation of p53 in tumor cells (p53 [2]): induces its accumulation in tumor cells
p53-HDM-2 interaction (p53-HDM-2 interaction): prevents p53-HDM-2 interaction
apoptosis [3]: massive apoptosis
expression of p53 target genes [3]: induced expression of p53 target genes
